According to patent EP4692061A1, “LOW-MOLECULAR-WEIGHT COMPOUND HAVING CEREBLON-BINDING ACTIVITY, AND USE THEREOF” (Aevis Bio, Inc., priority 2023, dated 2024):

Tests used:
[1] = system: MM.1S; assay: Tumor cell viability, CCK-8 assay, MM.1S; assay type: cell-based; conditions: MM.1S (human multiple myeloma); compound treatment 1uM; 5 days
Procedure: (§1) To examine whether the compounds having CRBN-binding activity according to the present invention exert tumor cell apoptosis effects, the assay was conducted using various human cancer cell lines, including human multiple myeloma cell lines (MM.1S and MM.1R-LR), a human breast cancer cell line (MDA-MB-231), a human lung cancer cell line (A549), a human rhabdomyosarcoma cell line (RD), and a human lymphoma cell line (Jeko-1).
(§2) The MM.1S, MM.1R-LR, MDA-MB-231, A549, RD, and Jeko-1 cell lines were obtained from the American Type Culture Collection (ATCC, Manassas, VA, USA) and cultured in RPMI 1640 medium (Corning, MD, USA) or DMEM (Corning, MD, USA) supplemented with 10% fetal bovine serum (FBS) (Corning, MD, USA), 100 U/mL penicillin (Corning, MD, USA), and 100 µg/mL streptomycin (Corning, MD, USA) at 37°C in a 5% CO2 incubator for 24 hours. The cells were seeded at a density of 1 × 10^4 cells/well in 96-well plates and incubated for 24 hours. After incubation, the test compounds dissolved in dimethyl sulfoxide (DMSO, CAS No.: 67-68-5) were serially diluted to a final concentration of 10 µM and applied to the cells. Following an additional incubation for 2 to 5 days, the analysis was performed using a CCK-8 assay kit (Dojindo, Japan) according to the manufacturer's instructions.

[2] = system: MM.1R-LR; assay: Tumor cell viability, CCK-8 assay, MM.1R-LR; assay type: cell-based; conditions: MM.1R-LR (drug-resistant human multiple myeloma); compound treatment 1uM; 5 days
Procedure: as §1, §2

[3] = molecular target: cereblon (CRBN) (Homo sapiens, UniProt Q96SW2); assay: In vitro CRBN binding assay (AlphaScreen, competitive inhibition of the PROTAC assay); conditions: Table 1; AlphaScreen, PROTAC Optimization Kit for BET Bromodomain-Cereblon Binding; read-out: Alpha IC50
[4] = system: MDA-MB-231; assay: Tumor cell viability, CCK-8 assay, MDA-MB-231; assay type: cell-based; conditions: MDA-MB-231 (human breast cancer); compound treatment 1uM; 2 days
Procedure: as §1, §2

[5] = system: A549; assay: Tumor cell viability, CCK-8 assay, A549; assay type: cell-based; conditions: A549 (human lung cancer); compound treatment 1uM; 2 days
Procedure: as §1, §2

| IC50 [3] | SMILES | Cell viability (% of control) [1] | Cell viability (% of control) [2] | Cell viability (% of control) [4] | Cell viability (% of control) [5] |
| --- | --- | --- | --- | --- | --- |
| 610 nM | O=C1CCC(c2cccc(NS(=O)(=O)c3cccc(NC(=O)c4ccccc4)c3)c2)C(=O)N1 (stereo not shown) [AEV40143] |  |  |  |  |
| 930 nM | Cc1ccc(C(=O)Nc2cccc(C3CCC(=O)NC3=O)c2)c(C)c1 (stereo not shown) [AEV40165] |  |  |  |  |
| 1120 nM | COc1cc(Cl)ccc1C(=O)Nc1cccc(C2CCC(=O)NC2=O)c1 (stereo not shown) [AEV40148] |  |  |  |  |
| 2130 nM | CC1CCC(C(=O)Nc2cccc(S(=O)(=O)Nc3cccc(C4CCC(=O)NC4=O)c3)c2)CC1 (stereo not shown) [AEV40224] |  |  |  |  |
| > 10000 nM | NCc1cccc(C2CCC(=O)NC2=O)c1 (stereo not shown) [AEV40132] |  |  |  |  |
| 2140 nM | O=C1CCC(c2cccc(NC(=O)c3cc4ccccc4[nH]3)c2)C(=O)N1 (stereo not shown) [AEV40190] |  |  |  |  |
| 1030 nM | O=C1CCC(c2cccc(NC(=O)c3ccccc3F)c2)C(=O)N1 (stereo not shown) [AEV40145] |  |  |  |  |
| 200 nM | O=C1CCC(c2cccc(NS(=O)(=O)c3ccc([N+](=O)[O-])cc3)c2)C(=O)N1 (stereo not shown) [AEV40055] |  |  |  |  |
| 4430 nM | O=C1CCC(c2ccc(F)cc2)C(=O)N1 (stereo not shown) [AEV40004] |  |  |  |  |

| SMILES | IC50 [3] | Cell viability (% of control) [1] | Cell viability (% of control) [2] | Cell viability (% of control) [4] | Cell viability (% of control) [5] |
| --- | --- | --- | --- | --- | --- |
| CCCc1ccc(C(=O)Nc2cccc(S(=O)(=O)Nc3cccc(C4CCC(=O)NC4=O)c3)c2)cc1 (stereo not shown) [AEV41011, N-(3-(N-(3-(2,6-dioxopiperidin-3-yl)phenyl)sulfamoyl)phenyl)-4-propylbenzamide] | 700 nM | 56.9 % of control | 66.1 % of control | 96.7 % of control | 98.9 % of control |
| Cc1ccc(C(=O)Nc2cccc(S(=O)(=O)Nc3cccc(C4CCC(=O)NC4=O)c3)c2)cc1 (stereo not shown) [AEV41009, N-(3-(N-(3-(2,6-dioxopiperidin-3-yl)phenyl)sulfamoyl)phenyl)-4-methylbenzamide] | 540 nM | 92.9 % of control | 81.3 % of control |  |  |
| CCc1ccc(C(=O)Nc2cccc(S(=O)(=O)Nc3cccc(C4CCC(=O)NC4=O)c3)c2)cc1 (stereo not shown) [AEV41010, N-(3-(N-(3-(2,6-dioxopiperidin-3-yl)phenyl)sulfamoyl)phenyl)-4-ethylbenzamide] | 420 nM | 88.4 % of control | 66.1 % of control | 95.7 % of control | 96.7 % of control |
